Measured values published in patent US5916906A, “Compositions comprising nicotinylalanine and an inhibitor of glycine conjugation or vitamin B6” (priority 1997, dated 1999).
“And” between values parts separate entries of the source, which are not always exact repeats. Identical values can stand only once.

Assays:
Format in all cases: in vivo, C57BL/6 mice
[1] = tested on: LP-BM5 MuLV Retrovirus; assay: MAIDS model, interim sacrifices: body weight, disease score, spleen weight; details: treatment from day 1: NAL 400 mg/kg i.p., ASA 20 mg/kg i.p., AZT 1 mg/ml in drink water; for Body Wt. / Spleen Wt.: individual mouse; for Disease Score: scores 0 through +4, individual mouse
Method: (§1) This study was designed to determine whether nicotinylalanine (NAL) alone or in combination with acetylsalicylic acid (ASA) will prevent or alter the course of murine retroviral-induced immunodeficiency disease, MAIDS, in C57BL/6 female mice. The LP-BM5 MuLV virus used for these studies was prepared from chronically infected SC-1 cells (ATCC Cat. No. CRL-1404), as described by Yetter R. A. et al., J. Exp. Med., 168, 623-635, 1988. […] The MAIDS model is well characterized and reproducible in the laboratory, as described by Mosier D. E. et al., J. Exp. Med. 161, 766-784, 1985.
(§2) Measures of disease progression followed the methods developed by Eiseman et al., 1991 (Ibid). Disease scores 0 through +4 are based upon body weight gain and palpable alterations in the size of lymph nodes and spleen. Severity of disease is scored as follows: 0.5, increased body weight and variably detected increase in size of any one lymph node or spleen; +1, clearly detectable increase in the size of a lymph node and spleen; +2, readily detectable (greater than 0.3 cm in diameter) increased size in more than one lymph node and, in particular, enlargement of subcervical, brachial or axillary nodes; +3, increased size of all palpable nodes and palpable splenomegaly (≥0.3 grams); +4, advanced disease with extensive splenomegaly (>1.0 grams) and lymphadenopathy.
(§3) Specific pathogen free, female C57BL/6 mice (5 weeks of age) were purchased from Charles River Breeding Laboratories. All mice were allowed one week to acclimate to housing facilities prior to randomization for study. Animals were marked for identification and placed in microisolator cages with identifying cards (5 mice/cage), where autoclaved food and water were provided ad libitum.
(§4) NAL and ASA were formulated under sterile conditions according to preformulation methods outlined in Remington's Pharmaceutical Sciences Handbook, 18th Edition, 1990, ibid). NAL and ASA were dissolved in sterile phosphate-buffered normal saline solution (i.e., vehicle; Biofluids Inc., Lot 413054), adjusted to between pH 7.2 to 7.4 with […], sterilized by filtration through 0.2 μm bottle-type filters, and dispersed into sterile glass vials, sealed and capped (Wheaton Inc.).
(§5) Except for Group 6 (which began treatment 2 weeks after virus inoculation),test drug injections began 1 day after virus infection and continued every day except weekends (i.e., 5 times per week).
Disease progression was monitored by measuring serum IgM levels by ELISA on all animals at monthly intervals during the course of disease. Three mice per group were randomly selected and sacrificed at monthly intervals (end of month one through four) of the study. Disease scores for each animal were recorded weekly based upon palpation of lymph nodes and spleen. Complete gross necropsies were performed on these euthanized animals and the ratio of recorded spleen to body weights was an additional indicator of diseases progression. […] Infection was quantified by ecotropic virus XC plaque assays of spleens removed from the interim sacrificed animals.

[2] = tested on: LP-BM5 MuLV Retrovirus; assay: MAIDS model: disease stage score, attainment of disease score 4 (Kaplan-Meier) and survival up to 28 weeks
Text: Each value represents the mean and one standard standard deviation for groups of surviving mice (at least 4 mice per group) at termination of the study, following 28 weeks post-inoculation by LP-BM5 virus.
(§6) Each group consisted of 8 mice, except for the virus-negative control group which consisted of 6 mice.
as §6, §1, §2, §3, §4, §5

[3] = tested on: LP-BM5 Retrovirus; assay: Ecotropic virus XC plaque assay on spleen cells of treated LP-BM5 infected mice
Text: FIG. 4A and 4B: Mean Number of Virus Particles as Determined from Plaques per Million Spleen Cells from Serially Sacrificed Mice at Monthly Intervals After Inoculation with LP-BM5 Retrovirus. […] Each ml of the virus pool contained 3.66 log PFU ecotropic virus as determined by XC Plaque Assay. Treatment in all groups began one day after virus inoculation, except for the NAL 400 Delay Group which began treatment two weeks after virus inoculation. Groups and treatments are as follows:
FIG. 4B: LP-BM5+PBS=as described above; NAL 400=virus positive, plus daily (M-F) i.p. injections of nicotinylalanine (400 mg/kg) only; NAL 400 delay=nicotinylalanine (400 mg/kg) only, injected i.p. daily (M-F) beginning two weeks after virus inoculation.
Ecotropic virus titers were determined using the XC plaque assay (Yetter R. A. et al., J. Exp. Med., 168, 623-635, 1988) and were performed on spleen cells cultured from all serially killed mice at the interim sacrifices as shown in Tables 2-A & 2-B). Spleens were weighed and cells were extruded with sterile media (RPMI 1640, with gentamycin and 10% fetal calf serum). Serial 10-fold dilutions were made and one ml of each dilution was overlayered onto a monolayer of SC-1 cells treated with 4 μg/ml polybrene. After 24 hours, the media was removed and washed and the SC-1 cells were fed with fresh media. When the monolayer was confluent, the plates were irradiated with UV light at 60 ergs/mm^2 /sec and overlayered with XC cells. When the XC cell layer was confluent, the plates were fixed with methanol and stained with Giemsa Stain. Plaques were counted on an Artek colony counter and confirmed by phase contrast microscopy. Values presented in FIG. 4A represent the mean of adjusted samples at three dilutions expressed as plaques per million spleen cells. Mean and standard deviations corresponding to each of the data points in FIGS. 4A and 4B are derived from three mice serially killed at interim sacrifice times.

[4] = Plasma nicotinamide levels in LP-BM5 infected mice (HPLC); details: NAL 400 mg/kg, ASA 20 mg/kg; for Ratio of plasma nicotinamide mean to placebo (PBS Control, Group 1): AZT as in Table 4; for Mean Plasma Nicotinamide Level: virus-positive, ~24 h after last treatment, AZT printed 1 mg/kg, mean ± SD
Method: Mice were sacrificed on Tuesdays at monthly intervals after
inoculation, approximately 24 hours after their last treatment.
At time of sacrifice, blood was collected by cardiac puncture and stored
Results are expressed as mean concentrations ± standard deviation in

Cc1cn([C@H]2C[C@H](N=[N+]=[N-])[C@@H](CO)O2)c(=O)[nH]c1=O [AZT, 3'azido-3'deoxythymidine, reference compound]
Body Wt. ([1]; 1 month postinoculation): 21.1 Grams and 20.9 Grams and 19.6 Grams | Spleen Wt. ([1]; 1 month postinoculation): 0.097 Grams and 0.108 Grams and 0.096 Grams | Disease Score ([1]; 1 month postinoculation): 0 and 0.5 | Body Wt. ([1]; 2 months postinoculation): 20.9 Grams and 20.0 Grams and 22.6 Grams | Spleen Wt. ([1]; 2 months postinoculation): 0.090 Grams and 0.104 Grams and 0.086 Grams | Disease Score ([1]; 2 months postinoculation): 0 | Body Wt. ([1]; 3 months postinoculation): 23.8 Grams and 23.5 Grams and 25.4 Grams | Spleen Wt. ([1]; 3 months postinoculation): 0.118 Grams and 0.114 Grams and 0.112 Grams | Disease Score ([1]; 3 months postinoculation): 0.5 | Body Wt. ([1]; 4 months postinoculation): 25.0 Grams and 21.1 Grams and 28.6 Grams | Spleen Wt. ([1]; 4 months postinoculation): 0.262 Grams and 0.086 Grams and 0.150 Grams | Disease Score ([1]; 4 months postinoculation): 2 and 0 and 1 | Disease score of mice that died prior to termination ([2]; Groups 4 and 7): 0.5 | Survival vs LP-BM5 virus-positive control (log-rank p) ([2]; treatment from day 1, FIG. 6): 0.0308 | Virus titer, plaques per million spleen cells ([3]; four months after inoculation, mean ± standard deviation, NAL 400 mg/kg, ASA 20 mg/kg, AZT 1 mg/mL): 333±495 plaques per million spleen cells | Mice with detectable virus (plaques) in spleens ([3]; four months, AZT with or without 400 mg/kg NAL): two of the mice | Ratio of plasma nicotinamide mean to placebo (PBS Control, Group 1) ([4]; Month 1): 1.59 | Mean Plasma Nicotinamide Level ([4]; Month 1): 5.1 ± 0.6 nmol/mL | Ratio of plasma nicotinamide mean to placebo (PBS Control, Group 1) ([4]; Month 2): 1.54 | Mean Plasma Nicotinamide Level ([4]; Month 2): 6.0 ± 0.4 nmol/mL | Ratio of plasma nicotinamide mean to placebo (PBS Control, Group 1) ([4]; Month 3): 2.26 | Mean Plasma Nicotinamide Level ([4]; Month 3): 5.2 ± 3.0 nmol/mL | Mean Plasma Nicotinamide Level ([4]; Month 4): 5.8 ± 0.4 nmol/mL
